In ChEMBL document CHEMBL2016494, “Ligand-based design of a potent and selective inhibitor of cytochrome P450 2C19” (J Med Chem, 2012):
pIC50: −log10 of the molar value.

Experiments:
Cytochrome P450 1A2 = target: T1, Cytochrome P450 1A2 (Homo sapiens, UniProt P05177); assay: Inhibition of CYP1A2 in human liver microsomes using phenacetin preincubated for 5 mins by LC-MS/MS analysis
T1 sequence (P05177 whole entry): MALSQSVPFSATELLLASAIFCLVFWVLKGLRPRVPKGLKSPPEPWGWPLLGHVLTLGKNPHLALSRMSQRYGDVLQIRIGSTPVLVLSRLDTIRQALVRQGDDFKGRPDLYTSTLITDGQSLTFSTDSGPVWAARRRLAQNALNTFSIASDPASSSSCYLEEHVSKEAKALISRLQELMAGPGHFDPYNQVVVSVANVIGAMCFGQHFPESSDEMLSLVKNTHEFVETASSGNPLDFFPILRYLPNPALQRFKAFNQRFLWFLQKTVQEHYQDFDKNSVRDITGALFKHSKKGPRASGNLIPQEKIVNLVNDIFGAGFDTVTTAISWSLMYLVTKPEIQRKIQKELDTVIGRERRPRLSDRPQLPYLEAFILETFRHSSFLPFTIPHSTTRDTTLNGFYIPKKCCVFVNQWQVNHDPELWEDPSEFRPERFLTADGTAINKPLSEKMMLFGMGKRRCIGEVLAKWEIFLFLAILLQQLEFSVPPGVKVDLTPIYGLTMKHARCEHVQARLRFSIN

[1] = Half life in human liver microsomes by LC-MS/MS analysis
[2] = Apparent intrinsic clearance in human liver microsomes by LC-MS/MS analysis
Cytochrome P450 2C8 = target: T2, Cytochrome P450 2C8 (Homo sapiens, UniProt P10632); assay: Inhibition of CYP2C8 in human liver microsomes using paclitaxel as substrate preincubated for 5 mins by LC-MS/MS analysis
T2 sequence (P10632 whole entry): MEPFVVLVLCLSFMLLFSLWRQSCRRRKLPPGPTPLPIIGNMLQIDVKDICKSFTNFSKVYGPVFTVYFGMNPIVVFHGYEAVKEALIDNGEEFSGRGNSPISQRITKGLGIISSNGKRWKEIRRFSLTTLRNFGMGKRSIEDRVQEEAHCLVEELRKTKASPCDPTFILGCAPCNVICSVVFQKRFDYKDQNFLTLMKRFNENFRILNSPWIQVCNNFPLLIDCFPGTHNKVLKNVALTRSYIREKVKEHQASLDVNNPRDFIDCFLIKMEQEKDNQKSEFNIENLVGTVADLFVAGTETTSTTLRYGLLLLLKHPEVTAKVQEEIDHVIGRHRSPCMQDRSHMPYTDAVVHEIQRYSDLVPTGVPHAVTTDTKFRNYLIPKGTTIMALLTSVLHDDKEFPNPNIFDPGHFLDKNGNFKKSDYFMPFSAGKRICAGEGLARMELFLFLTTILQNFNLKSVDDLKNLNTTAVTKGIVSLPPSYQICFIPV

Cytochrome P450 2D6 = Cytochrome P450 2D6 (Homo sapiens, UniProt P10635); assay: Inhibition of CYP2D6 in human liver microsomes using dextromethorphan as substrate preincubated for 5 mins by LC-MS/MS analysis
Chain of Cytochrome P450 2D6 (P10635 whole entry): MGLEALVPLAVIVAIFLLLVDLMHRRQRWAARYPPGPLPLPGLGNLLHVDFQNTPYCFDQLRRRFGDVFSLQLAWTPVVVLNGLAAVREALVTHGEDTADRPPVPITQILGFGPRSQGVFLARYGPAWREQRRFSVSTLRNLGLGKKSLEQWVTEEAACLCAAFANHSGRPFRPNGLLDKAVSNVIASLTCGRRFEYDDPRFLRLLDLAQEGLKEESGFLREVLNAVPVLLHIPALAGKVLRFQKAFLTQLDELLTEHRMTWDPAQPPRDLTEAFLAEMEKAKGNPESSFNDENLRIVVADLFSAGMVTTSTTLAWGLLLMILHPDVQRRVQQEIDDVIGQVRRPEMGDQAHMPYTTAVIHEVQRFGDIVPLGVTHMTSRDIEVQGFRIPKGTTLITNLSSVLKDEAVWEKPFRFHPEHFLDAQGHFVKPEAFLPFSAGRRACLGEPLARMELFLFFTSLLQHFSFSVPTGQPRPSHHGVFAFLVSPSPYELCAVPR

Cytochrome P450 2E1 = Cytochrome P450 2E1 (Homo sapiens, UniProt P05181); assay: Inhibition of CYP2E1 in human liver microsomes using chlorzoxazone as substrate preincubated for 5 mins by LC-MS/MS analysis
Chain of Cytochrome P450 2E1 (P05181 whole entry): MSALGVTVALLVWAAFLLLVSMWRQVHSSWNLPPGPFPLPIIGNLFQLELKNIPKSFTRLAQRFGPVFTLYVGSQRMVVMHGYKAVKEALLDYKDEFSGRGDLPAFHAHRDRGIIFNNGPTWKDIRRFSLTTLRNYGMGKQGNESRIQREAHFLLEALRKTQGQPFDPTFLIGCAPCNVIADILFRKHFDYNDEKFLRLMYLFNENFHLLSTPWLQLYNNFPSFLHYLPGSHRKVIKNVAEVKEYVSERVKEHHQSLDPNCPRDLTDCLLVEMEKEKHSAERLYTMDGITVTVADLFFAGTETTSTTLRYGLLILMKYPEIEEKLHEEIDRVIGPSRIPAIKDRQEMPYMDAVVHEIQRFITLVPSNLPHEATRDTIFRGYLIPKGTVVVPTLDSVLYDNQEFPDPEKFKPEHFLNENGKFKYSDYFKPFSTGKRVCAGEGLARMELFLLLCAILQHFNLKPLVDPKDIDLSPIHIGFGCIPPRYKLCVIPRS

Cytochrome P450 2B6 = target: T3, Cytochrome P450 2B6 (Homo sapiens, UniProt P20813); assay: Inhibition of CYP2B6 in human liver microsomes using bupropion as substrate preincubated for 5 mins by LC-MS/MS analysis
T3 sequence (P20813 whole entry): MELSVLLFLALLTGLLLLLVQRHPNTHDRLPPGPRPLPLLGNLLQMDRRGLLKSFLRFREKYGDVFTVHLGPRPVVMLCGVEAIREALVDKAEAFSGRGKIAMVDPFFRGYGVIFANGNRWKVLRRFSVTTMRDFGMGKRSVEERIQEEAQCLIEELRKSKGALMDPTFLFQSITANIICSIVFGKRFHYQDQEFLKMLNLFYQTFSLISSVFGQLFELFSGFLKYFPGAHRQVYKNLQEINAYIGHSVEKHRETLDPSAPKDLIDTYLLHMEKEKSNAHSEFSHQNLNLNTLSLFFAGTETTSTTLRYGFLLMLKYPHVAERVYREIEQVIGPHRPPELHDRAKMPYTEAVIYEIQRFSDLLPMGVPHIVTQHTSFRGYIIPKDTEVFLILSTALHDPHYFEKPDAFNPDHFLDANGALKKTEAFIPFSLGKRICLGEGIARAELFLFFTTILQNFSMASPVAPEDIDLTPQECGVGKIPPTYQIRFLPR

`CCCSc1nc2ccc(OC)cc2[nH]1` showed a pIC50 (Cytochrome P450 1A2) of 6.03, a half-life ([1]; microsomes) of 0.16 h and a microsomal CLint ([2]; microsomes) of 724 µL/min/mg. It also gave a pIC50 (Cytochrome P450 2C8) of 5.51 and a pIC50 (Cytochrome P450 2D6) of 5.71.

Compound `COc1ccc2[nH]c(SCc3ccccc3)nc2c1` has a half-life ([1]; microsomes) of 2 h, a pIC50 (Cytochrome P450 2E1) of less than 4.30 and a microsomal CLint ([2]; microsomes) of less than 57.8 µL/min/mg. The pIC50 (Cytochrome P450 2C8) was less than 4.30 and the pIC50 (Cytochrome P450 2B6) was less than 4.30.

`COc1ccc2nc(SCc3ccc(C(=O)O)cc3)[nH]c2c1` showed a half-life ([1]; liver microsomes) of 0.134 h and a microsomal CLint ([2]; liver microsomes) of 860 µL/min/mg.

In the case of `COc1ccc2[nH]c(SCCCC(=O)O)nc2c1`, the half-life ([1]; liver microsomes) was 2 h, the microsomal CLint ([2]; liver microsomes) was less than 57.8 µL/min/mg and the pIC50 (Cytochrome P450 2B6) was 4.54.
